Laboratory results: PubChem BioAssay (NCI)
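Following 48 hours of exposure in 96-well plates, responses at five concentrations were used to interpolate endpoints linearly. TGI denotes the concentration required for complete inhibition of growth.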

How the values were obtained:
Experiment in all cases: NCI tumour cell line growth inhibition, 48 h
786-0 renal = test system: 786-0 renal
A498 renal = test system: A498 renal
A549 NSCLC = test system: A549 NSCLC
ACHN renal = test system: ACHN renal
BT-549 breast = test system: BT-549 breast
CAKI-1 renal = test system: CAKI-1 renal
CCRF-CEM leukemia = test system: CCRF-CEM leukemia
COLO 205 colon = test system: COLO 205 colon
DU-145 prostate = test system: DU-145 prostate
EKVX NSCLC = test system: EKVX NSCLC
HCC-2998 colon = test system: HCC-2998 colon
HCT-116 colon = test system: HCT-116 colon
HCT-15 colon = test system: HCT-15 colon
HL-60(TB) leukemia = test system: HL-60(TB) leukemia
HOP-62 NSCLC = test system: HOP-62 NSCLC
HOP-92 NSCLC = test system: HOP-92 NSCLC
HS 578T breast = test system: HS 578T breast
HT29 colon = test system: HT29 colon
IGROV1 ovarian = test system: IGROV1 ovarian
K-562 leukemia = test system: K-562 leukemia
KM12 colon = test system: KM12 colon
LOX IMVI melanoma = test system: LOX IMVI melanoma
M14 melanoma = test system: M14 melanoma
MALME-3M melanoma = test system: MALME-3M melanoma
MCF7 breast = test system: MCF7 breast
MDA-MB-231 breast = test system: MDA-MB-231 breast
MDA-MB-435 = test system: MDA-MB-435
MDA-N = test system: MDA-N
MOLT-4 leukemia = test system: MOLT-4 leukemia
NCI-H226 lung = test system: NCI-H226 lung
NCI-H23 lung = test system: NCI-H23 lung
NCI-H460 lung = test system: NCI-H460 lung
NCI-H522 lung = test system: NCI-H522 lung
OVCAR-3 ovarian = test system: OVCAR-3 ovarian
OVCAR-4 ovarian = test system: OVCAR-4 ovarian
OVCAR-5 ovarian = test system: OVCAR-5 ovarian
PC-3 prostate = test system: PC-3 prostate
RPMI-8226 leukemia = test system: RPMI-8226 leukemia
RXF 393 renal = test system: RXF 393 renal
SF-268 CNS = test system: SF-268 CNS
SF-295 CNS = test system: SF-295 CNS
SF-539 CNS = test system: SF-539 CNS
SK-MEL-2 melanoma = test system: SK-MEL-2 melanoma
SK-MEL-28 melanoma = test system: SK-MEL-28 melanoma
SK-MEL-5 melanoma = test system: SK-MEL-5 melanoma
SK-OV-3 ovarian = test system: SK-OV-3 ovarian
SN12C renal = test system: SN12C renal
SNB-19 CNS = test system: SNB-19 CNS
SR leukemia = test system: SR leukemia
SW-620 colon = test system: SW-620 colon
T-47D breast = test system: T-47D breast
TK-10 renal = test system: TK-10 renal
U251 CNS = test system: U251 CNS
UACC-257 melanoma = test system: UACC-257 melanoma
UACC-62 melanoma = test system: UACC-62 melanoma
UO-31 renal = test system: UO-31 renal
NCI/ADR-RES ovarian = test system: NCI/ADR-RES ovarian
OVCAR-8 ovarian = test system: OVCAR-8 ovarian

`C=C1C(=O)O[C@@H]2O[C@@]3(C)CC[C@H]4[C@H](C)CC[C@@H]1[C@@]24O3` gave a TGI (786-0 renal) of 41.3 µM, a TGI (A498 renal) of over 100 µM and a TGI (A549 NSCLC) of over 100 µM. It also gave a TGI (ACHN renal) of 26.9 µM, a TGI (BT-549 breast) of 22.2 µM and a TGI (CAKI-1 renal) of 46.4 µM. For the same molecule, the TGI (CCRF-CEM leukemia) was 11.8 µM, the TGI (COLO 205 colon) was 34.3 µM and the TGI (DU-145 prostate) was 27.5 µM. It also gave a TGI (EKVX NSCLC) of 48.7 µM, a TGI (HCC-2998 colon) of 41 µM and a TGI (HCT-116 colon) of 32.2 µM. The TGI (HCT-15 colon) was 27.6 µM, the TGI (HL-60(TB) leukemia) was over 100 µM and the TGI (HOP-62 NSCLC) was over 100 µM. For the same molecule, the TGI (HOP-92 NSCLC) was 12.4 µM, the TGI (HS 578T breast) was over 100 µM and the TGI (HT29 colon) was 83.5 µM. For the same molecule, the TGI (IGROV1 ovarian) was 28.3 µM, the TGI (K-562 leukemia) was over 100 µM and the TGI (KM12 colon) was 21.3 µM. It also gave a TGI (LOX IMVI melanoma) of 40.1 µM, a TGI (M14 melanoma) of over 100 µM and a TGI (MALME-3M melanoma) of 86.4 µM. For the same molecule, the TGI (MCF7 breast) was 25.3 µM, the TGI (MDA-MB-231 breast) was 81.8 µM and the TGI (MDA-MB-435) was over 100 µM. The TGI (MDA-N) was over 100 µM, the TGI (MOLT-4 leukemia) was 38.9 µM and the TGI (NCI-H226 lung) was over 100 µM. The TGI (NCI-H23 lung) was 40.1 µM, the TGI (NCI-H460 lung) was 65.9 µM and the TGI (NCI-H522 lung) was 62.8 µM. For the same molecule, the TGI (OVCAR-3 ovarian) was 93.5 µM, the TGI (OVCAR-4 ovarian) was 36.3 µM and the TGI (OVCAR-5 ovarian) was over 100 µM. For the same molecule, the TGI (PC-3 prostate) was 52.7 µM, the TGI (RPMI-8226 leukemia) was 36.8 µM and the TGI (RXF 393 renal) was 54.7 µM. It also gave a TGI (SF-268 CNS) of over 100 µM, a TGI (SF-295 CNS) of over 100 µM and a TGI (SF-539 CNS) of 32.2 µM. It also gave a TGI (SK-MEL-2 melanoma) of 46.9 µM, a TGI (SK-MEL-28 melanoma) of over 100 µM and a TGI (SK-MEL-5 melanoma) of over 100 µM. It also gave a TGI (SK-OV-3 ovarian) of over 100 µM, a TGI (SN12C renal) of 59.2 µM and a TGI (SNB-19 CNS) of over 100 µM. The TGI (SR leukemia) was 47 µM, the TGI (SW-620 colon) was over 100 µM and the TGI (T-47D breast) was 38.1 µM. It also gave a TGI (TK-10 renal) of 32.7 µM, a TGI (U251 CNS) of over 100 µM and a TGI (UACC-257 melanoma) of 47.9 µM. The TGI (UACC-62 melanoma) was 29.7 µM and the TGI (UO-31 renal) was 63 µM.

With `O=C1C=CC(=O)c2c1ccc1c3ccccc3n(CCCCCCCCn3c4ccccc4c4ccc5c(c43)C(=O)C=CC5=O)c21` the TGI (786-0 renal) was over 100 µM, the TGI (A498 renal) was over 100 µM and the TGI (A549 NSCLC) was over 100 µM. It also gave a TGI (ACHN renal) of over 100 µM, a TGI (BT-549 breast) of over 100 µM and a TGI (CAKI-1 renal) of over 100 µM. It also gave a TGI (CCRF-CEM leukemia) of over 100 µM, a TGI (COLO 205 colon) of over 100 µM and a TGI (DU-145 prostate) of over 100 µM. For the same molecule, the TGI (EKVX NSCLC) was over 100 µM, the TGI (HCC-2998 colon) was over 100 µM and the TGI (HCT-116 colon) was over 100 µM. It also gave a TGI (HCT-15 colon) of over 100 µM, a TGI (HL-60(TB) leukemia) of over 100 µM and a TGI (HOP-62 NSCLC) of over 100 µM. The TGI (HS 578T breast) was over 100 µM, the TGI (HT29 colon) was over 100 µM and the TGI (IGROV1 ovarian) was over 100 µM. For the same molecule, the TGI (K-562 leukemia) was over 100 µM, the TGI (KM12 colon) was over 100 µM and the TGI (LOX IMVI melanoma) was over 100 µM. The TGI (M14 melanoma) was over 100 µM, the TGI (MALME-3M melanoma) was over 100 µM and the TGI (MCF7 breast) was over 100 µM. For the same molecule, the TGI (MDA-MB-231 breast) was over 100 µM, the TGI (MDA-MB-435) was over 100 µM and the TGI (MDA-N) was over 100 µM. The TGI (MOLT-4 leukemia) was over 100 µM, the TGI (NCI-H226 lung) was over 100 µM and the TGI (NCI-H23 lung) was over 100 µM. It also gave a TGI (NCI-H460 lung) of over 100 µM, a TGI (NCI-H522 lung) of over 100 µM and a TGI (NCI/ADR-RES ovarian) of over 100 µM. The TGI (OVCAR-3 ovarian) was over 100 µM, the TGI (OVCAR-4 ovarian) was over 100 µM and the TGI (OVCAR-5 ovarian) was over 100 µM. For the same molecule, the TGI (OVCAR-8 ovarian) was over 100 µM, the TGI (PC-3 prostate) was over 100 µM and the TGI (RPMI-8226 leukemia) was over 100 µM. It also gave a TGI (RXF 393 renal) of over 100 µM, a TGI (SF-268 CNS) of over 100 µM and a TGI (SF-295 CNS) of over 100 µM. It also gave a TGI (SF-539 CNS) of over 100 µM, a TGI (SK-MEL-2 melanoma) of over 100 µM and a TGI (SK-MEL-28 melanoma) of over 100 µM. For the same molecule, the TGI (SK-MEL-5 melanoma) was over 100 µM, the TGI (SK-OV-3 ovarian) was over 100 µM and the TGI (SN12C renal) was over 100 µM. The TGI (SNB-19 CNS) was over 100 µM, the TGI (SW-620 colon) was over 100 µM and the TGI (T-47D breast) was over 100 µM. The TGI (TK-10 renal) was over 100 µM, the TGI (U251 CNS) was over 100 µM and the TGI (UACC-257 melanoma) was over 100 µM. It also gave a TGI (UACC-62 melanoma) of over 100 µM.
